# Results from article PMC11550998, “Novel 5-HT7 receptor antagonists modulate intestinal immune responses and reduce severity of colitis” (American Journal of Physiology - Gastrointestinal and Liver …, 2024).
# pIC50: −log10 of the molar value.
# How the values were obtained:
# [1] = system: acute DSS-induced colitis; assay: Acute DSS-induced colitis model; format: in vivo, C57BL/6 mice
# Description: C57BL/6 (Taconic, Cambridge City, IN) for the DSS model of colitis, as well as C57BL/6 and Rag1^−/− mice (Jackson Laboratory, Bar Harbor, ME) for the T-cell transfer model, were kept in sterilized, filter-topped cages under specific pathogen-free conditions upon arrival and fed autoclaved food. Male mice aged 8–10 wk were used for all experiments. Mice were acclimatized for 7 days before the start of any experiments. All experiments were approved by the animal ethics committee of McMaster University and conducted under Canadian guidelines for animal research.
# For induction of acute colitis, DSS (molecular mass 40 kDa; ICN; Biomedicals Incorporate, Solon, OH) was added to autoclaved drinking water at a final concentration of 4 or 5% wt/vol for 5 days. For the induction of chronic colitis, DSS was added to normal drinking water at a final concentration of 4% for 5 days, followed by 7 days of water. This cycle was repeated twice thereafter, with 2% DSS. Control mice received vehicle or normal drinking water.
# For acute DSS-induced colitis, C576BL/6 mice were treated with MC-170073 (10 mg/kg of body wt) or vehicle (10% DMSO in normal saline) via intraperitoneal injection once daily for 6 days, starting 1 day before the beginning of DSS. In a separate experiment, C57BL/6 mice were orally administered with MC-230078 (10 mg/kg) or vehicle twice daily for 5 days, starting from the beginning of DSS. For chronic DSS-induced colitis, C57BL/6 mice were treated with MC-170073 (10 mg/kg ip) or vehicle once daily for 6 days, starting 1 day before the beginning of the third cycle. Last, for CD4^+CD45RB^high T cell-induced chronic colitis, reconstituted Rag1^−/− mice were orally administered MC-230078 (5 mg/kg or 10 mg/kg) or a vehicle twice daily for 10 days starting from week 6 post-reconstitution of T cells.
# Disease activity index (DAI) is a combined score of weight loss, stool consistency, and fecal bleeding and was blindly assessed using a previously published scoring system ([19]). This scoring system was defined as follows: weight loss: 0 = no loss; 1 = 1–5%; 2 = 5–10%; 3 = 10–20%; 4 = 20%+; stool, 0 = normal; 2 = loose stool; 4 = diarrhea; and bleeding: 0 = no blood; 2 = hemoccult positive (Hemoccult II; Beckman Coulter, Fullerton, CA); and 4 = gross blood (blood around anus). DAI was measured across all days of DSS treatment. Macroscopic damage scores were blindly scored using a previously published scoring system for DSS-induced colitis ([19]).
# Colonic myeloperoxidase (MPO) levels were measured following a published protocol ([19]). Briefly, colonic tissue samples were homogenized in ice-cold 50 mmol·L^−1 potassium phosphate buffer containing 0.5% hexadecyl trimethyl ammonium bromide (pH = 6.0) (Sigma). Homogenates were centrifuged, the supernatant was removed, and an aliquot was then added to a solution containing potassium phosphate buffer, O-dianisidine, and hydrogen peroxide (Sigma-Aldrich). The absorbance was measured at 450 nm by a spectrophotometer (model EL808, BioTek). MPO level was expressed in units per milligram of tissue, where 1 U is defined as the quantity of enzyme able to convert 1 μmol hydrogen peroxide to water per minute at room temperature.
# Segments of the proximal colon were washed with PBS, fixed in 10% neutral-buffered formalin, washed with ethanol, and embedded in paraffin. Hematoxylin-eosin (H&E)-stained colonic tissue sections were scored using a previously published system ([19]): crypt architecture (normal = 0; severe crypt distortion with loss of entire crypts = 3), degree of inflammatory cell infiltration (normal = 0; dense inflammatory infiltrate = 3), muscle thickening (base of crypt sits on the muscularis mucosae = 0; marked muscle thickening present = 3), goblet cell depletion (absent = 0; present = 1), and crypt abscess (absent = 0; present = 1). A breakdown of scoring criteria can be seen in Supplemental Table S1. The histological damage score is the sum of each individual score. […]
# [2] = biological target: T1, h5-HT7D expressed in U2OS cells (Homo sapiens, UniProt P34969); assay: 5-HT7 functional assay (cAMP Hunter eXpress GPCR luminescence assay); format: cell-based; conditions: antagonist, cAMP production stimulated by 150 nM 5-HT (EC80), Cheng-Prusoff
# T1 construct: host or cells: U2OS
# T1 sequence (P34969 whole entry): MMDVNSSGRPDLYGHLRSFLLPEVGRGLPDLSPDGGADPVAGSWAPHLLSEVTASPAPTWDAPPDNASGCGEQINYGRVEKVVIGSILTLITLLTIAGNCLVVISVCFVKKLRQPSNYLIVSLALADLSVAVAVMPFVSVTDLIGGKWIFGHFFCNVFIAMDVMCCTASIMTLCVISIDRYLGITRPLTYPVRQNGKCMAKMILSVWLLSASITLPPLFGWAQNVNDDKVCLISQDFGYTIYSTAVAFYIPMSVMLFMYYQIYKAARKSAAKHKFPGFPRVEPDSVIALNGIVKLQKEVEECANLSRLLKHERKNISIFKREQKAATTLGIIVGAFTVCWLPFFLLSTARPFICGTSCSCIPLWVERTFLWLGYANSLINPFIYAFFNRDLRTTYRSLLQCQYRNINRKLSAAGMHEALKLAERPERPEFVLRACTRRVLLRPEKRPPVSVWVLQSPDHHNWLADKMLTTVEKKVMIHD
# Description: The potencies of MC-170073, […], and MC-230079 as 5-HT7 antagonists were determined using the cAMP Hunter eXpress GPCR luminescence assay (DiscoveRx, 95-0163E3) and the manufacturer’s protocol. Cryopreserved U2OS cells expressing h5-HT7D were seeded into 96-well white-walled clear bottom tissue culture-treated plates (31,250 cells/well) and were allowed to recover for 16 h at 37°C in a humidified incubator with 5% CO2. The media was aspirated and replaced with 30-µL cell assay buffer (CAB). Cells were preincubated at 37°C for 15 min with 7.5 µL of 6× final concentration of 5 to 10 concentrations in triplicate of test compounds in CAB. Cells were then stimulated for 30 min at 37°C with 7.5 µL of 900 nM of the full agonist 5-HT in cell assay buffer (final concentration 150 nM; an EC80). cAMP levels/well were determined at room temperature by adding 15 µL of cAMP antibody and 60 µL of cAMP working detection solution, followed by the addition of 60 µL of solution A after 1 h incubation. Luminescence was read 16 h later with an EnVision multilabel plate reader. The IC50 of test compounds was calculated using GraphPad’s Prism 5 (GraphPad Software, La Jolla, CA) nonlinear curve-fitting program. The equilibrium dissociation constant for the competitive antagonists (KB) values was determined using the Cheng-Prusoff equation.
# [3] = biological target: CYP2D6 (Homo sapiens, UniProt P10635); assay: Cytochrome P450 inhibition assay, 2D6 (fluorescent substrate); format: in vitro ADME; conditions: expressed enzyme
# CYP2D6, sequence (P10635 whole entry): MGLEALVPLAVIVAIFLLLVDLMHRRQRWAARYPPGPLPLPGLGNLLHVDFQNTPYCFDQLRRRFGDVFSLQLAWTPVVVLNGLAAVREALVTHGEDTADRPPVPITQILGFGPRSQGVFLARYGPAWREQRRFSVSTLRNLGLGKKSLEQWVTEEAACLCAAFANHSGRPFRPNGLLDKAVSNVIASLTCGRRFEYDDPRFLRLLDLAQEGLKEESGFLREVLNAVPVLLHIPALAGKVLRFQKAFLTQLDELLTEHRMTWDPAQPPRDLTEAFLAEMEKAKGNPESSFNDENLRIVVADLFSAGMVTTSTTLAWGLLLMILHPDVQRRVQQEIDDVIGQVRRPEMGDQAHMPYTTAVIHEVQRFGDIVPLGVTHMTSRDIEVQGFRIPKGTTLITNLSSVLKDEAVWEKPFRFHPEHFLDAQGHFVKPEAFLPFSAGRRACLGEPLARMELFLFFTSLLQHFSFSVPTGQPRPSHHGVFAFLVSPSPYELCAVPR
# Description: Compounds were assessed for their ability to inhibit human cytochrome P450 3A4 using testosterone as a substrate and LC-MS/MS analysis, whereas the 2D6 and 2C9 assays used fluorescent substrates and EnVision plate reader analysis. Expressed enzymes were used to minimize nonspecific binding and membrane partitioning issues ([15]).
# [4] = 4% DSS 5 days, 10 mg/kg ip once daily 6 days
# [5] = 4% DSS 5 days, 10 mg/kg ip once daily 6 days, vs vehicle-treated mice
# [6] = 5% DSS 5 days, 10 mg/kg orally twice daily 5 days
# [7] = 5% DSS, 10 mg/kg orally twice daily 5 days
# [8] = 5% DSS, 10 mg/kg orally twice daily, day 5 post-DSS vs vehicle
Compound,"colonic IL-1β level [1, 4]","colonic IL-6 level [1, 4]","colonic MPO level [1, 4]","colonic TNF-α level [1, 4]","DAI scores [1, 5]","histological damage scores [1, 5]","macroscopic scores [1, 5]",Kb [2],pIC50 [3],"DAI [1, 6]","body weight change during DSS [1, 6]","colonic IL-1β level [1, 7]","colonic MPO level [1, 7]","histological scores [1, 8]","macroscopic scores [1, 8]"
CCC1(CC)CC(CCN2CCN(c3ccc(O)cc3)CC2)OC1=O (centres unmarked) [MC-170073],lower levels,lower levels,lower levels,lower levels,significantly lower,significantly less severe,lower,18 nM,< 5.00,–,–,–,–,–,–
CCC1(CC)C[C@@H](CCN2CCN(c3ccc(O)cc3)CC2)OC1=O [MC-230078],–,–,–,–,–,–,–,21 nM,< 5.00,significantly lower,no significant difference,significantly lower,significantly lower,significantly lower,significantly lower
